Source: ChEMBL document CHEMBL3808336, “Pyrazolylbenzo[d]imidazoles as new potent and selective inhibitors of carbonic anhydrase isoforms hCA IX and XII” (Bioorg Med Chem, 2016)

Tests used:
Carbonic anhydrase 9 = Carbonic anhydrase 9 (Homo sapiens, UniProt Q16790); experiment: Inhibition of recombinant human carbonic anhydrase 9 preincubated for 15 min to 72 hrs by stopped flow CO2 hydrase assay
Carbonic anhydrase 1 = Carbonic anhydrase 1 (Homo sapiens, UniProt P00915); experiment: Inhibition of recombinant human carbonic anhydrase 1 preincubated for 15 min to 72 hrs by stopped flow CO2 hydrase assay
Carbonic anhydrase 2 = Carbonic anhydrase 2 (Homo sapiens, UniProt P00918); experiment: Inhibition of recombinant human carbonic anhydrase 2 preincubated for 15 min to 72 hrs by stopped flow CO2 hydrase assay

Sequence of Carbonic anhydrase 1 (P00915 whole entry): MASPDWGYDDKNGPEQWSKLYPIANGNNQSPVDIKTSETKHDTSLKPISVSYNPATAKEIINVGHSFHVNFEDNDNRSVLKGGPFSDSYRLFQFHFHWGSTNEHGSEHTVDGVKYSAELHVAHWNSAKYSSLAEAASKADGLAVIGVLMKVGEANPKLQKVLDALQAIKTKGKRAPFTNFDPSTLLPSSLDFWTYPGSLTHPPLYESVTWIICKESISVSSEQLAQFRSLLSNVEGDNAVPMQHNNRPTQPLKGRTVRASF

Row | Compound | Ki (Carbonic anhydrase 9) [nM] | Ki (Carbonic anhydrase 1) [nM] | Ki (Carbonic anhydrase 2) [nM]
1 | Fc1ccc(-c2nn(-c3ccccc3)cc2-c2nc3ccccc3[nH]2)cc1 |  | > 40000 | > 40000
2 | Clc1ccc(-c2nn(-c3ccccc3)cc2-c2nc3ccccc3[nH]2)cc1 | 7.5 | > 40000 | > 40000
3 | COc1ccc(-c2nn(-c3ccccc3)cc2-c2nc3ccccc3[nH]2)cc1 | 48.7 | > 40000 | > 40000
4 | NS(=O)(=O)c1ccc(-n2cc(-c3nc4ccccc4[nH]3)c(-c3ccccc3)n2)cc1 | 24.9 |  | 
5 | NS(=O)(=O)c1ccc(-n2cc(-c3nc4ccccc4[nH]3)c(-c3ccc(Br)cc3)n2)cc1 | 641 |  | 
6 | Brc1ccc(-c2nn(-c3ccccc3)cc2-c2nc3ccccc3[nH]2)cc1 | 55.1 |  | > 40000
7 | COc1ccc(-c2nn(-c3ccc(S(N)(=O)=O)cc3)cc2-c2nc3ccccc3[nH]2)cc1 | 554 |  | 

More lines, in order of falling Ki (Carbonic anhydrase 9), values ahead:

Row | Ki (Carbonic anhydrase 9) [nM] | Ki (Carbonic anhydrase 1) [nM] | Ki (Carbonic anhydrase 2) [nM] | Compound
8 | 74.7 |  |  | NS(=O)(=O)c1ccc(-n2cc(-c3nc4ccccc4[nH]3)c(-c3ccc(F)cc3)n2)cc1
9 | 70.2 |  |  | NS(=O)(=O)c1ccc(-n2cc(-c3nc4ccccc4[nH]3)c(-c3ccc(Cl)cc3)n2)cc1
10 | 55.9 | > 40000 | > 40000 | c1ccc(-c2nn(-c3ccccc3)cc2-c2nc3ccccc3[nH]2)cc1
11 | 23.3 | > 40000 | > 40000 | Cc1ccc(-c2nn(-c3ccccc3)cc2-c2nc3ccccc3[nH]2)cc1
